# US12624004B2 (Fudan University, priority 2019, dated 2026)
# Structures can show the parent of a compound that is named as a salt. Where two headings read alike, the source gives them in different places.
# Assays:
# μ opioid receptor = biological target: T1, μ opioid receptor (Homo sapiens, UniProt P35372); experiment: Competition binding assay on membranes of CHO cells expressing μ opioid receptor, [3H]-labeled ligand; details: for Ki: read-out: μOR Ki
# T1 construct: expressed in transfected cells; host or cells: CHO cells (membranes)
# Outline: (§1)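 CHO membranes (20–30 μg protein) incubated with [3H]-labeled ligand at 1–2 nM and test compounds, 30 min at 30° C; nonspecific binding with 1 μM corresponding ligand. Filtered on GF/C, washed with 50 mM Tris-HCl pH 7.4, scintillation-counted. IC50 converted to Ki by Ki=IC50/(1+[L]/Kd).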
# δ opioid receptor = biological target: T2, δ opioid receptor (Homo sapiens, UniProt P41143); experiment: Competition binding assay on membranes of CHO cells expressing δ opioid receptor, [3H]-labeled ligand; details: for Ki: read-out: δOR Ki; for inhibition at 1 µM: 0.5 h
# T2 construct: expressed in transfected cells; host or cells: CHO cells (membranes)
# Outline: as §1
# κ opioid receptor = biological target: T3, κ opioid receptor (Homo sapiens, UniProt P41145); experiment: Competition binding assay on membranes of CHO cells expressing κ opioid receptor, [3H]-labeled ligand; details: for Ki: read-out: κOR Ki; for inhibition at 1 µM: 0.5 h
# T3 construct: expressed in transfected cells; host or cells: CHO cells (membranes)
# Outline: as §1
# Female mice = experiment: In vivo hot plate method analgesia test; details: intraperitoneal; for Maximum percentage effective analgesia (% MPE): Table 5-2, hot plate 55° C.; for Maximum percentage effective analgesia (% MPE) / % MPE @ 10 mg/kg: 10 mg/kg dose; for % MPE (5 mg/kg): Table 2-2, hot plate 55° C.; for % MPE @ 10 mg/kg: Table 3-2, hot plate 55° C.
# Outline: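 Female mice (~20 g) on a 55° C hot plate, hindpaw response latency as pain threshold (pre-screen 5–30 s, 60 s cut-off). Latencies at 15, 30, 60 and 120 min after intraperitoneal dosing. %MPE = (post−pre latency)/(60−pre)×100, ED50 derived from %MPE.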
# [1] = 0.5 h, Table 5-1, 1 μM concentration of compound, read-out: μOR Combination rate (%)
# [2] = Table 5-1, 1 μM concentration of compound, read-out: δOR Combination rate (%)
# [3] = Table 2-1, 1 μM concentration of compound, read-out: δOR Binding rate (%)
# [4] = Table 2-1, 1 μM concentration of compound, read-out: κOR Binding rate (%)
# [5] = Table 3-1, 1 μM concentration of compounds, read-out: μOR Binding rate (%)
# [6] = Table 3-1, 1 μM concentration of compounds, read-out: δOR Binding rate (%)
# [7] = Table 3-1, 1 μM concentration of compounds, read-out: κOR Binding rate (%)
compound,measurement,setting,value
"COc1cccc(C2(O)CCN(C(=O)Cc3ccc4ccccc4c3)CC2CN(C)C)c1.Cl (stereo not drawn) [FWBE15, 1-(3-((Dimethylamino)methyl)-4-hydroxy-4-(3-methoxyphenyl)piperidin-1-yl)-2-(naphthalen-2-yl)ethyl-1-one hydrochloride]",Ki,μ opioid receptor; Table 5-1,81.6 ± 1 nM
same,Ki,δ opioid receptor; Table 5-1,> 10000 nM
same,Ki,κ opioid receptor; Table 5-1,2651 ± 3.5 nM
same,Maximum percentage effective analgesia (% MPE),Female mice,0%
"COc1cccc(C2(O)CCN(C(=O)c3cc(F)c(F)cc3F)CC2CN(C)C)c1.Cl (stereo not drawn) [FWBE5, (3-((Dimethylamino)methyl)-4-hydroxy-4-(3-methoxyphenyl)piperidin-1-yl)(2,4,5-trifluorophenyl)methanone hydrochloride]",inhibition at 1 µM,μ opioid receptor; [1],13 ± 0.2%
same,inhibition at 1 µM,δ opioid receptor; [2],7 ± 6.3%
same,inhibition at 1 µM,"κ opioid receptor; Table 5-1, 1 μM concentration of compound, read-out: κOR Combination rate (%)",23 ± 5.9%
same,Maximum percentage effective analgesia (% MPE),Female mice,3%
"COc1cccc(C2(O)CCN(S(=O)(=O)Cc3cccc([N+](=O)[O-])c3)CC2CN(C)C)c1.Cl (stereo not drawn) [FWBH22, 3-((Dimethylamino)methyl)-4-(3-methoxyphenyl)-1-((3-nitrobenzyl)sulfonyl)piperidin-4-ol hydrochloride]",Ki,μ opioid receptor; Table 2-1,212 ± 9 nM
same,inhibition at 1 µM,δ opioid receptor; [3],10.2 ± 3.19%
same,inhibition at 1 µM,κ opioid receptor; [4],32.7 ± 3.1%
same,% MPE (5 mg/kg),Female mice,41.43%
"COc1cccc(C2(O)CCN(C(=O)C3(c4ccccc4)CC3)CC2CN(C)C)c1.Cl (stereo not drawn) [FWBE24, (3-((Dimethylamino)methyl)-4-hydroxy-4-(3-methoxyphenyl)piperidin-1-yl)(1-phenylcyclopropyl)methanone hydrochloride]",Ki,μ opioid receptor; Table 5-1,67.15 ± 0.08 nM
same,Ki,δ opioid receptor; Table 5-1,848 ± 529 nM
same,Ki,κ opioid receptor; Table 5-1,33.9 ± 0.92 nM
same,Maximum percentage effective analgesia (% MPE),Female mice,29.85%
"COc1cccc(C2(O)CCN(S(=O)(=O)C(C)C)CC2CN(C)C)c1.Cl (stereo not drawn) [FWBH20, 3-((Dimethylamino)methyl)-1-(isopropylsulfonyl)-4-(3-methoxyphenyl)piperidin-4-ol hydrochloride]",Ki,μ opioid receptor; Table 2-1,255 ± 5.3 nM
same,inhibition at 1 µM,δ opioid receptor; [3],20.8 ± 1.91%
same,inhibition at 1 µM,κ opioid receptor; [4],6.88 ± 4.38%
same,% MPE (5 mg/kg),Female mice,0%
"COc1cccc(C2(O)CCN(C(=O)C3(c4ccccc4)CCCCC3)CC2CN(C)C)c1.Cl (stereo not drawn) [FWBE27, (3-((Dimethylamino)methyl)-4-hydroxy-4-(3-methoxyphenyl)piperidin-1-yl)(1-phenylcyclohexyl) methanone hydrochloride]",Ki,μ opioid receptor; Table 5-1,51.6 ± 2.24 nM
same,inhibition at 1 µM,δ opioid receptor; [2],93.6 ± 1.08%
same,Ki,κ opioid receptor; Table 5-1,30.7 ± 0.96 nM
same,Maximum percentage effective analgesia (% MPE),Female mice,61.21%
"COc1cccc(C2(O)CCN(S(=O)(=O)Cc3cccc(C(F)(F)F)c3)CC2CN(C)C)c1.Cl (stereo not drawn) [FWBH10, 3-((Dimethylamino)methyl)-4-(3-methoxyphenyl)-1-((3-(trifluoromethyl)benzyl)sulfonyl) piperidin-4-ol hydrochloride]",Ki,μ opioid receptor; Table 2-1,4.68 ± 0.12 nM
same,Ki,δ opioid receptor; Table 2-1,3650 ± 1250 nM
same,inhibition at 1 µM,κ opioid receptor; [4],30.1 ± 0.7%
same,% MPE (5 mg/kg),Female mice,72.41%
"COc1cccc(C2(O)CCN(C(=O)NC(C)C34CC5CC(CC(C5)C3)C4)CC2CN(C)C)c1.Cl [FWBF15, N-(1-((3R,5R,7R)-adamantan-1-yl)ethyl)-3-((dimethylamino)methyl)-4-hydroxy-4-(3-methoxyphenyl)piperidine-1-carboxamide hydrochloride]",inhibition at 1 µM,μ opioid receptor; [5],32.8 ± 5.5%
same,inhibition at 1 µM,δ opioid receptor; [6],0%
same,inhibition at 1 µM,κ opioid receptor; [7],10.4 ± 10.2%
same,% MPE @ 10 mg/kg,Female mice,22.07%
"COc1cccc(C2(O)CCN(C(=O)N(C)c3cccc(Cl)c3)CC2CN(C)C)c1.Cl (stereo not drawn) [FWBF3, N-(3-Chlorophenyl)-3-((dimethylamino)methyl)-4-hydroxy-4-(3-methoxyphenyl)-N-methylpiperidine-1-carboxamide hydrochloride]",inhibition at 1 µM,μ opioid receptor; [5],8.7 ± 3.7%
same,inhibition at 1 µM,δ opioid receptor; [6],0%
same,inhibition at 1 µM,κ opioid receptor; [7],14 ± 9.7%
same,% MPE @ 10 mg/kg,Female mice,3.36%
"COc1cccc(C2(O)CCN(S(=O)(=O)C[C@]34CC[C@H](CC3O)C4(C)C)CC2CN(C)C)c1 (stereo partly drawn) [FWBH27, 3-((Dimethylamino)methyl)-1-((((1S,4R)-2-hydroxy-7,7-dimethylbicyclo[2.2.1]hept-1-yl)methyl)sulfonyl)-4-(3-methoxyphenyl)piperidin-4-ol hydrochloride]",Ki,μ opioid receptor; Table 2-1,32.5 ± 3.3 nM
same,inhibition at 1 µM,δ opioid receptor; [3],24.8 ± 0.77%
same,Ki,κ opioid receptor; Table 2-1,27.7 ± 3.9 nM
same,% MPE (5 mg/kg),Female mice,12.21%
"COc1cccc(C2(O)CCN(C(=O)N[C@@H](C)c3ccccc3)CC2CN(C)C)c1 (stereo partly drawn) [FWBF13, 3-((Dimethylamino)methyl)-4-hydroxy-4-(3-methoxyphenyl)-N-((S)-1-phenylethyl)piperidine-1-carboxamide hydrochloride]",inhibition at 1 µM,μ opioid receptor; [5],20.5 ± 5.5%
same,inhibition at 1 µM,δ opioid receptor; [6],0%
same,inhibition at 1 µM,κ opioid receptor; [7],4.1 ± 6.7%
same,% MPE @ 10 mg/kg,Female mice,5.77%
"COc1cccc(C2(O)CCN(C(=O)Nc3ccc4ccccc4c3)CC2CN(C)C)c1 (stereo not drawn) [FWBF11, 3-((Dimethylamino)methyl)-4-hydroxy-4-(3-methoxyphenyl)-N-(naphthalen-2-yl)piperidine-1-carboxamide hydrochloride]",inhibition at 1 µM,μ opioid receptor; [5],0.5%
same,inhibition at 1 µM,δ opioid receptor; [6],0%
same,inhibition at 1 µM,κ opioid receptor; [7],3.9%
same,% MPE @ 10 mg/kg,Female mice,4.41%
"COc1cccc(C2(O)CCN(C(=O)Nc3cccc(Cl)c3)CC2CN(C)C)c1.Cl (stereo not drawn) [FWBF2, N-(3-Chlorophenyl)-3-((dimethylamino)methyl)-4-hydroxy-4-(3-methoxyphenyl)piperidine-1-carboxamide hydrochloride]",Ki,μ opioid receptor; Table 3-1,14.1 ± 2.7 nM
same,Ki,δ opioid receptor; Table 3-1,537 ± 69.3 nM
same,Ki,κ opioid receptor; Table 3-1,719 ± 197 nM
same,% MPE @ 10 mg/kg,Female mice,21.27%
"COc1cccc(C2(O)CCN(S(=O)(=O)Cc3ccc(Cl)cc3)CC2CN(C)C)c1.Cl (stereo not drawn) [FWBH11, 1-((4-Chlorobenzyl)sulfonyl)-3-((dimethylamino)methyl)-4-(3-methoxyphenyl)piperidin-4-ol hydrochloride]",Ki,μ opioid receptor; Table 2-1,711.7 ± 3.65 nM
same,inhibition at 1 µM,δ opioid receptor; [3],50.9 ± 1.58%
same,inhibition at 1 µM,κ opioid receptor; [4],36.6 ± 3.32%
same,% MPE (5 mg/kg),Female mice,55.49%
"COc1cccc(C2(O)CCN(C(=O)Cc3cccc(C(F)(F)F)c3)CC2CN(C)C)c1.Cl (stereo not drawn) [FWBE4, 1-(3-((Dimethylamino)methyl)-4-hydroxy-4-(3-methoxyphenyl)piperidin-1-yl)-2-(3-(trifluoromethyl)phenyl)ethyl-1-one hydrochloride]",inhibition at 1 µM,μ opioid receptor; [1],37.8 ± 2.9%
same,Ki,δ opioid receptor; Table 5-1,> 10000 nM
same,Ki,κ opioid receptor; Table 5-1,3030 ± 150 nM
same,Maximum percentage effective analgesia (% MPE),Female mice,69%
"COc1cccc(C2(O)CCN(C(=O)C3(c4ccccc4)CCCC3)CC2CN(C)C)c1.Cl (stereo not drawn) [FWBE26, (3-((Dimethylamino)methyl)-4-hydroxy-4-(3-methoxyphenyl)piperidin-1-yl)(1-phenylcyclopentyl) methanone hydrochloride]",Ki,μ opioid receptor; Table 5-1,73.72 ± 0.32 nM
same,Ki,δ opioid receptor; Table 5-1,1640 ± 1160 nM
same,Ki,κ opioid receptor; Table 5-1,32.6 ± 4.35 nM
same,Maximum percentage effective analgesia (% MPE),Female mice,52.96%
"CCS(=O)(=O)N1CCC(O)(c2cccc(OC)c2)C(CN(C)C)C1.Cl (stereo not drawn) [FWBH18, 3-((Dimethylamino)methyl)-1-(ethylsulfonyl)-4-(3-methoxyphenyl)piperidin-4-ol hydrochloride]",Ki,μ opioid receptor; Table 2-1,180 ± 11.7 nM
same,inhibition at 1 µM,δ opioid receptor; [3],24 ± 0.49%
same,inhibition at 1 µM,κ opioid receptor; [4],13.5 ± 2.22%
same,% MPE (5 mg/kg),Female mice,15.57%
"COc1cccc(C2(O)CCN(S(=O)(=O)C[C@@]34CC[C@@H](CC3=O)C4(C)C)CC2CN(C)C)c1 (stereo partly drawn) [FWBH24, (1R,4S)-1-(((3-((Dimethylamino)methyl)-4-hydroxy-4-(3-methoxyphenyl)piperidin-1-yl)sulfonyl)methyl)-7,7-Dimethylbicyclo[2.2.1]heptan-2-one hydrochloride]",Ki,μ opioid receptor; Table 2-1,65.1 ± 5.36 nM
same,inhibition at 1 µM,δ opioid receptor; [3],11.1 ± 1.3%
same,Ki,κ opioid receptor; Table 2-1,433 ± 15.3 nM
same,% MPE (5 mg/kg),Female mice,54.81%
